Test system: HIF-1α
Test: Western blot of HIF-1α in ARPE-19 cells under hypoxia
Type: cell-based, Human
Conditions: ARPE-19, 1 μM, 1% oxygen, 6 hours (FIG. 26)
Experimental: Human retinal pigmented epithelium ARPE-19 cells were seeded in the number of 3×10^5 on a 60-millimeter plate, and cultured at 37° C. and 5% CO2, and DMEM/F-12 including 10% fetal bovine serum and 1% penicillin & streptomycin was used as the medium for 2 days. Two days later, the cells were treated with DMSO (0.5%), SMx, SB-U005, SB-U009, SB-U011 and SB-U012 at 1 μM and cultured under 1% oxygen conditions in a hypoxia chamber for 6 hours, and then a western blot experiment was performed.
After the cell culture experiment was completed, the cell culture solution was removed, the cells was washed once with cold PBS, and a RIPA solution (50 mM Tris-HCl pH 7.4, 150 mM NaCl, 0.25% Na-deoxycholate, 1% NP-40) was added thereto to harvest cells using a cell scraper. After the cells were sufficiently lysed, a 6× sample buffer was mixed with a cell suspension obtained by low-temperature centrifugation, the resulting mixture was boiled at 95° C. for 5 minutes, and then 12% SDS-PAGE was performed. […]
Thereafter, the membrane was washed twice with TBS-T (Tris-buffered saline+Tween-20), and then reacted with a secondary antibody (diluted at 1:5,000) at room temperature for 1 hour. After the membrane was washed twice with TBS-T, changes in protein expression level were measured by a Chemidoc system (GE, LAS 4000) using a Clarity Western ECL substrate (Bio-Rad).

In the case of `COC1=C(OC)C(=O)C(CCCCCCCCCC[P+](c2ccccc2)(c2ccccc2)c2ccccc2)=C(C)C1=O` [SMx], the “suppression of HIF-1α” value is reported as “effectively suppressed”.
